The text below walks through data of article PMC6039432, “A small-molecule inhibitor of SOD1-Derlin-1 interaction ameliorates pathology in an ALS mouse model” (Nature Communications, 2018).

Broadly, the IC50 is the concentration needed to halve the response being measured. As usually defined, the Kd is the concentration at which binding is half-saturated.

Each structure is given as a SMILES string.

Assay [1] concerns the target T1, SOD1-Derlin-1 complex (Flag-SOD1 / Derlin-1-HA) (Homo sapiens, UniProt P00441, G94A).
T1 construct: Flag-SOD1 G93A and Derlin-1-HA co-expressed in HEK293A; complex purified on anti-Flag beads for the in vitro assay, or assayed in cells; all tags kept; with Derlin-1
The assay is described as follows: in vitro co-immunoprecipitation of purified complex, immunoblot. The assay is classed as biochemical. (In general: In western blotting, separated proteins are transferred to a membrane and probed.)

In assay [2] the target is T2, SOD1 (GST-SOD1 / Flag-SOD1; WT or G93A) (Homo sapiens, UniProt P00441, G94A).
T2 construct: full length; GST fusion from pGEX-6P-1 in E. coli BL21, eluted with glutathione (tag apparently kept), loaded with CuSO4 and ZnCl2 (described for activity assay); Flag-tagged in HEK293A for pull-down
T2 sequence (P00441 2-154 G94A): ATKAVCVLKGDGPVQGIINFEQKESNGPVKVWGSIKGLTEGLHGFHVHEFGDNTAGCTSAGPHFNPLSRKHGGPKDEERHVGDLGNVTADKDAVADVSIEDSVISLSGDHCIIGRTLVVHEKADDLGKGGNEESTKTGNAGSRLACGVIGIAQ
In words: fluorescence polarization (intrinsic fluorescence of compound). The assay is classed as binding.

T1 sequence (P00441 2-154 G94A): as above
T1 sequence (Q9BUN8 2-251 partner): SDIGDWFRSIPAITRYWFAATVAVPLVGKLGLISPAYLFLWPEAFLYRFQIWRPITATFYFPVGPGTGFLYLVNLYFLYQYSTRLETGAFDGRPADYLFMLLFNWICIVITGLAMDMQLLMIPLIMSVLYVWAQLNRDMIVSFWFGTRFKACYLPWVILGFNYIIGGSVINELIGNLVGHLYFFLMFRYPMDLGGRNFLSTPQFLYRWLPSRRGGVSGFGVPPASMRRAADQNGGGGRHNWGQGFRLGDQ

As for `Nc1c(C(=O)Nc2ccc(Cl)cc2Cl)sc2nc(-c3cccnc3)ccc12` [#56-26], half-maximal inhibition in assay [1] (IC50) was put at 6.2 µM. In the case of `Nc1c(C(=O)Nc2ccc3c(c2)OCO3)sc2nc(-c3cccnc3)ccc12` [#56], the IC50 in assay [1] stood at 23.3 µM. In assay [1], `Nc1c(C(=O)Nc2ccc(Br)cc2Br)sc2nc(-c3cccnc3)ccc12` [#56-20] displayed an IC50 of 7.11 µM. For the same compound, binding in assay [2] was characterised by a dissociation constant (Kd) of 81.1 µM.
